Experimental data published in ChEMBL document CHEMBL1201862, “PubChem BioAssay data set” (2004).
Calls of active or inactive are those of the source.

Tests used:
[1] = viability of uninfected HEp-2 cells – cell-based, HTS, cytotoxicity control for RSV inhibitor project, dose response (AID 2410); assay type: functional; details: human respiratory syncytial virus
[2] = molecular target: T1, Corticotropin-releasing factor receptor 2/Corticotropin-releasing factor-binding protein (Homo sapiens, UniProt P24387+Q13324); assay: activators of CRF receptor 2 with binding protein – uHTS hits, confirmation (AID 602473); assay type: functional; details: read-out: EC50_Mean
T1 sequence (Q13324 whole entry): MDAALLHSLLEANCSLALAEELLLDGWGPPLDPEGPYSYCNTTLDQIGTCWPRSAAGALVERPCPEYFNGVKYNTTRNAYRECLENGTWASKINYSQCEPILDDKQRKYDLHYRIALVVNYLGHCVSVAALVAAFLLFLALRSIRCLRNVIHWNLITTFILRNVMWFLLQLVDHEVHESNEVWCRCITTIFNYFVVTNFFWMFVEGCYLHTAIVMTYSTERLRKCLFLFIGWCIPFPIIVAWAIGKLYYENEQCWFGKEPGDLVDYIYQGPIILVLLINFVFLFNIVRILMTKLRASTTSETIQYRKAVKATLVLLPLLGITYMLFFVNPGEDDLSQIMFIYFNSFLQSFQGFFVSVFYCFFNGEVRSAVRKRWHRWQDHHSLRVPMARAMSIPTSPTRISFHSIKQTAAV
T1 sequence (P24387 whole entry): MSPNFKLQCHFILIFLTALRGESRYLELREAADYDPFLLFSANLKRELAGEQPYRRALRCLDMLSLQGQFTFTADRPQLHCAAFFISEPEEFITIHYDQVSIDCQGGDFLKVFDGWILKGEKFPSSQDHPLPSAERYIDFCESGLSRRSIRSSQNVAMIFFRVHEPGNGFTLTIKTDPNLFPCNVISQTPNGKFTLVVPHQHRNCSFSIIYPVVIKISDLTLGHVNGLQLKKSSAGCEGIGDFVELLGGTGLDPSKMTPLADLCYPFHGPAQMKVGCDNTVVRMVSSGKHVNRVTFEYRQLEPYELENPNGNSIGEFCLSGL

[3] = molecular target: T2, Calpain-2 catalytic subunit (Sus scrofa, UniProt P43367); assay: m-calpain protease blockers, concentration series – biochemical, fluorogenic peptide substrate, dose response (AID 1420); assay type: functional
T2 sequence (P43367 whole entry): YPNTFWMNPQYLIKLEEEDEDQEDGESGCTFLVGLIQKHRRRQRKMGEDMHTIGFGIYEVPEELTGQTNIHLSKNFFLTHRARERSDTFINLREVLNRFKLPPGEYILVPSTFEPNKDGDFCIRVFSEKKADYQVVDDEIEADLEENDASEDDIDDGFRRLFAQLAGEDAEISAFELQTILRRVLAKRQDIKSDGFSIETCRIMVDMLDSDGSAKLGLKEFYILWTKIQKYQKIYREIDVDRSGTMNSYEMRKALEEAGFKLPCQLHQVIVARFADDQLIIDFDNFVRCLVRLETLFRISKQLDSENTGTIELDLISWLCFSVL

[4] = viability loss of HPDE-C7K cells – cell-based, fluorescence, HTS, primary screen (AID 431); assay type: functional; details: Homo sapiens
[5] = HPDE-C7 pancreatic duct cell viability loss – fluorescence, HTS (AID 430); assay type: functional, cell-based; details: Homo sapiens
[6] = molecular target: Heat shock protein HSP 90-alpha (Homo sapiens, UniProt P07900); assay type: functional, organism-based
Phospholipase A2 = Phospholipase A2 (Homo sapiens, UniProt P04054); assay type: functional;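 further: confirmatory dose-response counterscreen on phospholipase A2, testing hits that came from an ultra-high-throughput screen for ATG4B inhibitors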
Cysteine protease ATG4B = molecular target: T3, Cysteine protease ATG4B (Homo sapiens, UniProt Q9Y4P1); assay type: functional;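 further: Fluorescence-based dose-response confirmation assay measuring inhibition of ATG4B activity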
T3 sequence (Q9Y4P1 whole entry): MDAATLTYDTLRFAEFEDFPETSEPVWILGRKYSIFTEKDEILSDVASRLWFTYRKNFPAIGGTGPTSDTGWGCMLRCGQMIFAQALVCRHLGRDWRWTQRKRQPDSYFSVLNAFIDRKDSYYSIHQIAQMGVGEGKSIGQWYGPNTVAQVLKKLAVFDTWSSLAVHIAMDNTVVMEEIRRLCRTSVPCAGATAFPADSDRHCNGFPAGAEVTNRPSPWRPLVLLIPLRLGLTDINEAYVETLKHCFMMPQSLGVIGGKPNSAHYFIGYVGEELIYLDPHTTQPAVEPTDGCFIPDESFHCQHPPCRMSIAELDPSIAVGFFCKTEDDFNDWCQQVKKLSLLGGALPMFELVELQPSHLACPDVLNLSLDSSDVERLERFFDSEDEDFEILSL

[7] = microbe, parasite or virus in culture; assay type: functional; details: Mycobacterium tuberculosis
[8] = viability of PTEN-deleted HCT116 cells – cell-based, HCT116 PTEN knockout, dose response (AID 1047); assay type: functional;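 further: HCT116 colon tumor cells with PTEN knocked out; cells exposed to compound for 60 hours before readout; potency for loss of cell viability measured by luminescence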
[9] = IC50 of Artemis nuclease activity blockers – biochemical, fluorescence intensity, dose response (AID 720701); assay type: functional;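 further: Artemis endonuclease enzyme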
[10] = test system: Streptococcus sp. 'group A'; assay: Streptococcus pyogenes SK(-)GAS viability under kanamycin – luminescence, BacTiterGlo, confirmation, counter-screen for streptokinase expression inhibitor project, dose response (AID 1900); assay type: functional, organism-based
[11] = molecular target: T4, Low molecular weight phosphotyrosine protein phosphatase (Homo sapiens, UniProt P24666); assay type: functional; details: read-out: IC50_Mean;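 further: Dose-response confirmation assay measuring inhibition of LMPTP enzyme activity by fluorescence intensity read-out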
T4 sequence (P24666 whole entry): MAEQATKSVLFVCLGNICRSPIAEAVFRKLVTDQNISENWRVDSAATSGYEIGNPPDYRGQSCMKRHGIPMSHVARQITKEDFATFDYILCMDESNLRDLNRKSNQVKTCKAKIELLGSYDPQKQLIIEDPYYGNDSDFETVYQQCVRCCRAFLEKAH

Streptococcus = assay: GAS UMAA2166 growth inhibition – luminescence, BacTiterGlo, counter-screen for streptokinase expression inhibitor project, dose response (AID 1915); assay type: functional, organism-based;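 further: potency for reduction of bacterial viability or growth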
[12] = viability of HCT116 lacking mutant beta-catenin – cell-based, human colon tumor, dose response (AID 1045); assay type: functional;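 further: HCT116 colon tumor cells with beta catenin knocked out; cells exposed to compound for 60 hours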
[13] = alpha-synuclein stem-loop luciferase translation blockers – H4 neuroglioma cells, luminescence, confirmation (AID 1988); assay type: functional, cell-based
[14] = luciferase reporter signal suppression in cells – H4 neuroglioma cells, luminescence, dose response (AID 1990); assay type: functional, cell-based
HT-1080 = assay: HT1080 cell viability loss – fluorescence readout (AID 620); assay type: functional, cell-based; details: Homo sapiens
[15] = molecular target: T5, Ubiquitin-conjugating enzyme E2 N (Homo sapiens, UniProt P61088); assay type: functional;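 further: Dose-response confirmation in a TR-FRET assay detecting UBC13-driven polyubiquitin chain formation, inhibition measured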
T5 sequence (P61088 whole entry): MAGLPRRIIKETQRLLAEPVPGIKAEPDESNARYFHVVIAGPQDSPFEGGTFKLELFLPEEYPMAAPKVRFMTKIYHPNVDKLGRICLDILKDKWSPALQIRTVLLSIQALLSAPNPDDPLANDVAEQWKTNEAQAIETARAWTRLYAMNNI

[16] = Luminescence Cell-Based Dose Response HTS to Identify Inhibitors of 5'UTR Stem-Loop Driven Prion Protein mRNA Translation in H4 Neuroglioblastoma Cells. [Related pubchem assays: 1827 (Project Summary), 1813 (Primary HTS)]; assay type: functional
[17] = molecular target: Luciferin 4-monooxygenase (Photinus pyralis, UniProt P08659); assay: Counter Screen for Luciferase-based Assay Positives. [Related pubchem assays: 620, 618, 411 ]
HEK293 = assay: EBV LMP1 TES2 canonical NF-kB signalling blockers – cell-based, HEK293, luciferase, cherry-pick, dose response (AID 588343); assay type: functional; details: Homo sapiens
Vero [18] = assay: cells; assay type: functional, cell-based; details: Chlorocebus sabaeus
H4 = assay: Luminescence Cell-Based Dose Response HTS to Identify Activators of 5'UTR Stem-Loop Driven Prion Protein mRNA Translation in H4 Neuroglioblastoma Cells. [Related pubchem assays: 1829 (Project Summary), 1814 (Primary HTS)]; assay type: functional; details: Homo sapiens
[19] = Luminescence Cell-Based Dose Response HTS to Identify Activators of Luciferase Translation or Activity in H4 […] Cells. [Related pubchem assays: 1829 (Project Summary), 1814 (Primary HTS)]; assay type: functional
Vero [20] = assay: cells; assay type: functional; details: Chlorocebus sabaeus
[21] = molecular target: 5-hydroxytryptamine receptor 2A (Mus musculus, UniProt P35363); assay type: functional, cell-based;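 further: CHO-K1 cells with tagged receptor and beta-arrestin; agonist potency measured as compound-induced activation of the receptor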
Mu-type opioid receptor = Mu-type opioid receptor (Homo sapiens, UniProt P35372); assay type: functional, cell-based;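 further: U2OS cells with beta-arrestin recruitment to OPRM1 by beta-gal complementation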
[22] = viability loss in THP-1 monocytes – THP-1 cells, cytotoxicity control for Vif-APOBEC3G degradation inhibitor project, dose response (AID 1117359); assay type: functional; details: THP-1
[23] = molecular target: T1, Corticotropin-releasing factor receptor 2/Corticotropin-releasing factor-binding protein; assay: Dose Response confirmation of uHTS hits for small molecule antagonists of the CRF-binding protein and CRF-R2 receptor complex.; assay type: functional; details: read-out: IC50_Mean
[24] = molecular target: Peroxisome proliferator-activated receptor gamma/Nuclear receptor coactivator 1 (Homo sapiens, UniProt P37231); assay type: functional;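 further: agonist potency as compounds enhance coactivator SRC-1 recruitment to PPARgamma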
[25] = molecular target: Peroxisome proliferator-activated receptor gamma/Nuclear receptor coactivator 2 (Homo sapiens, UniProt P37231); assay type: functional;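 further: agonist potency for raising coactivator recruitment to the receptor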
[26] = molecular target: Peroxisome proliferator-activated receptor gamma/Nuclear receptor coactivator 3 (Homo sapiens, UniProt P37231); assay type: functional;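 further: agonist potency for raising coactivator recruitment to the receptor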
Protein skinhead-1 = molecular target: T6, Protein skinhead-1 (Caenorhabditis elegans, UniProt P34707); assay type: functional
T6 sequence (P34707 whole entry): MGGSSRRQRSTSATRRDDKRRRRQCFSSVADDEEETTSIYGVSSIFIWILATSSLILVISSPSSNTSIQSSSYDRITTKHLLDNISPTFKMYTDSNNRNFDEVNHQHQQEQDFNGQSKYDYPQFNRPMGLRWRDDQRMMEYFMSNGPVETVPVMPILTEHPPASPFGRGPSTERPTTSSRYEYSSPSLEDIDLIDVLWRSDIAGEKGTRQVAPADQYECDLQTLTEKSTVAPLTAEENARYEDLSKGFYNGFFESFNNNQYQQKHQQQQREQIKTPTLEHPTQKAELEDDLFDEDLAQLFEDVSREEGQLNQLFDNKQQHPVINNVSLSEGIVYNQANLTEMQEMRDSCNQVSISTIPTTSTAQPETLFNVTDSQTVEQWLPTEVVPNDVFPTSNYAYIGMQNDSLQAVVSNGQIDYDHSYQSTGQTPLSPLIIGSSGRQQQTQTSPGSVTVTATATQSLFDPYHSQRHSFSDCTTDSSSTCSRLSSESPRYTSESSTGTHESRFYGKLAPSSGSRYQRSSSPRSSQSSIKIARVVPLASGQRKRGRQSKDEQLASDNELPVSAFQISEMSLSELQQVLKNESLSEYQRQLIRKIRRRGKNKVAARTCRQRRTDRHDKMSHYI

[27] = molecular target: Eukaryotic translation initiation factor 4E (Mus musculus, UniProt P63073); assay: blockers of eIF4G binding by eIF4E – biochemical, TR-FRET, dose response (AID 855); assay type: functional;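 further: potency for disrupting eIF4E binding to eIF4GI seen as loss of FRET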
[28] = molecular target: Induced myeloid leukemia cell differentiation protein Mcl-1 (Homo sapiens, UniProt Q07820); assay type: functional

Peroxisome proliferator-activated receptor gamma/Nuclear receptor coactivator 2, sequence (P37231 whole entry): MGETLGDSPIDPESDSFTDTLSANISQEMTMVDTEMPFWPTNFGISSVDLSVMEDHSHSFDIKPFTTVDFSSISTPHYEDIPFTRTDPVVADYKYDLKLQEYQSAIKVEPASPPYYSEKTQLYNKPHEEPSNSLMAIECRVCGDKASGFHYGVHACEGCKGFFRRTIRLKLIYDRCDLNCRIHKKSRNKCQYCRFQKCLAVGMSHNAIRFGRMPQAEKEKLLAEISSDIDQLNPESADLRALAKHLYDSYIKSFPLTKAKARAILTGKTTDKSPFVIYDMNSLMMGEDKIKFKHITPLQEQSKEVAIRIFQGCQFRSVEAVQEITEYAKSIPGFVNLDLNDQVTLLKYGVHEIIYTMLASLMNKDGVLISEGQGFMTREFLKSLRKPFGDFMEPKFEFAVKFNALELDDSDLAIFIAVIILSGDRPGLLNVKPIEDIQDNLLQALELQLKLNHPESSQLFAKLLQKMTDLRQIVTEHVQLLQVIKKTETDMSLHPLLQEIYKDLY
Peroxisome proliferator-activated receptor gamma/Nuclear receptor coactivator 2, sequence (Q15596 whole entry, further chain): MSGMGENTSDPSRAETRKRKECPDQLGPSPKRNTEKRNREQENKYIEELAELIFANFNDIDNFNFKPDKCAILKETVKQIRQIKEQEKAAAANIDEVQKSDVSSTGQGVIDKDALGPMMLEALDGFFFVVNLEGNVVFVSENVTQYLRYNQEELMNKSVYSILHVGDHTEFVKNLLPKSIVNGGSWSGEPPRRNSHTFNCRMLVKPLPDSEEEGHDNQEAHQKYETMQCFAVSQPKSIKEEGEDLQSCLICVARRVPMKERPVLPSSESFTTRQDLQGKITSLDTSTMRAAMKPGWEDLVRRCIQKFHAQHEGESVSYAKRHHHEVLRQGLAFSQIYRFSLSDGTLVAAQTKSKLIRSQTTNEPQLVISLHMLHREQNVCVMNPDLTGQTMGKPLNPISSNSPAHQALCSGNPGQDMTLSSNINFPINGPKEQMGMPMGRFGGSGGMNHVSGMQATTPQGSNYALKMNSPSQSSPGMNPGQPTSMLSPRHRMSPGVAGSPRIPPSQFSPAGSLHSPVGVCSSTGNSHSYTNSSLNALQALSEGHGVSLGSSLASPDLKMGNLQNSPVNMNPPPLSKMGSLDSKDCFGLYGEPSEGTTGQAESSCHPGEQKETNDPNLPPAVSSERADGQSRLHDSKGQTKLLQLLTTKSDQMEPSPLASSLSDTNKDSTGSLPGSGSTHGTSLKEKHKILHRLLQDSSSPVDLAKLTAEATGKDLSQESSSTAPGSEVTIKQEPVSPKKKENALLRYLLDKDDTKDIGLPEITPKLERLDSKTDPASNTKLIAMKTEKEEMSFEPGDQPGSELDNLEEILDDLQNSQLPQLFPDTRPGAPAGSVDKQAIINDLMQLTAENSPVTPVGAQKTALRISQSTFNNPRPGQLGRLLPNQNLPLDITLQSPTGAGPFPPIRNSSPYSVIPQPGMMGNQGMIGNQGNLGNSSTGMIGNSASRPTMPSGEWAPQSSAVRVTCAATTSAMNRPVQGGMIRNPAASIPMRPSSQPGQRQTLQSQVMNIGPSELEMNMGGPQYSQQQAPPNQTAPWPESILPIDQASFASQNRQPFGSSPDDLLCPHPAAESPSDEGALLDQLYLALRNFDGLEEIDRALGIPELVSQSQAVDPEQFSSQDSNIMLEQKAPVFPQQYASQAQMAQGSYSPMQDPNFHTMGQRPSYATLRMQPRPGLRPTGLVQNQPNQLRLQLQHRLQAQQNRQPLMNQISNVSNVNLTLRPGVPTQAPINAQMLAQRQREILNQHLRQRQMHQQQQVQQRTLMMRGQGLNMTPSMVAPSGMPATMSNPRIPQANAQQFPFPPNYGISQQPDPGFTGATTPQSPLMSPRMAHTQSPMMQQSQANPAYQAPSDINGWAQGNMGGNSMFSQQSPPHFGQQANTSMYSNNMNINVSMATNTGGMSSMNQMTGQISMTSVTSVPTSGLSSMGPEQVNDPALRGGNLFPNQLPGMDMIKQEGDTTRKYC
Peroxisome proliferator-activated receptor gamma/Nuclear receptor coactivator 3, sequence (P37231 whole entry): as the sequence (P37231 whole entry) above
Peroxisome proliferator-activated receptor gamma/Nuclear receptor coactivator 3, sequence (Q9Y6Q9 whole entry, further chain): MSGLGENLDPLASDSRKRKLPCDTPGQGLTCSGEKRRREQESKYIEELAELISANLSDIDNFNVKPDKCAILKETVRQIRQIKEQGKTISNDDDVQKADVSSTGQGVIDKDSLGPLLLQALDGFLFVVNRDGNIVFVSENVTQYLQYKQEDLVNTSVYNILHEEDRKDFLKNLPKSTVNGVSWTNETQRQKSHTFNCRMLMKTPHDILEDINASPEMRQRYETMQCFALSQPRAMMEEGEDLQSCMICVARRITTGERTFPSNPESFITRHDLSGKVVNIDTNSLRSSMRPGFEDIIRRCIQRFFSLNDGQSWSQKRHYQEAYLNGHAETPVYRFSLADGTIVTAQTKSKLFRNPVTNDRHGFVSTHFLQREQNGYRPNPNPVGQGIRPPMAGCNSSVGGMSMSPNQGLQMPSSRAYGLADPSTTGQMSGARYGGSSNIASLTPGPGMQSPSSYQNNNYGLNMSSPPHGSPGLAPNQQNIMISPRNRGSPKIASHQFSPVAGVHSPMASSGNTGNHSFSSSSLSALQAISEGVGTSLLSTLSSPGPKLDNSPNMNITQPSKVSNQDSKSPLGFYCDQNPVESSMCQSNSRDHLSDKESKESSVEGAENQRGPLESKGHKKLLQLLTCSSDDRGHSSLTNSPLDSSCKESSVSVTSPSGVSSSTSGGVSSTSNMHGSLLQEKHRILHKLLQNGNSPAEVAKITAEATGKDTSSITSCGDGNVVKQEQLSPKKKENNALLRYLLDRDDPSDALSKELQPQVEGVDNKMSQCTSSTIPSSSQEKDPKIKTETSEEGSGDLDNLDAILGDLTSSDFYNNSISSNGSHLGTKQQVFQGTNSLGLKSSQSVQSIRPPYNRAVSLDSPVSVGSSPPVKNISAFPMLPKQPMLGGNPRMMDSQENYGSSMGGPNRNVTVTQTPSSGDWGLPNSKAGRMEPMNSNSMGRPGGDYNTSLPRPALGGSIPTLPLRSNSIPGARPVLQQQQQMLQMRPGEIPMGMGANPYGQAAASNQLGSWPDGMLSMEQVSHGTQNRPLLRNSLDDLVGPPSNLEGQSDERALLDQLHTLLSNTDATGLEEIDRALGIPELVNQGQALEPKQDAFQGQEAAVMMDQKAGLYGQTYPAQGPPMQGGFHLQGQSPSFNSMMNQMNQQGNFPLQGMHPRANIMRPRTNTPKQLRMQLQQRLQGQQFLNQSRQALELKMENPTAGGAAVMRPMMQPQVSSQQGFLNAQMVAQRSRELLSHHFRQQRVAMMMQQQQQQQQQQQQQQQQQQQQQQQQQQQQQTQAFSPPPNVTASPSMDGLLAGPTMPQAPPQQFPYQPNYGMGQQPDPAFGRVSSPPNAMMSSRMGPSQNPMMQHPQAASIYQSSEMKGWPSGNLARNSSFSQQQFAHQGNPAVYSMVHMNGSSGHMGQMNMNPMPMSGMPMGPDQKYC
Phospholipase A2, sequence (P04054 whole entry): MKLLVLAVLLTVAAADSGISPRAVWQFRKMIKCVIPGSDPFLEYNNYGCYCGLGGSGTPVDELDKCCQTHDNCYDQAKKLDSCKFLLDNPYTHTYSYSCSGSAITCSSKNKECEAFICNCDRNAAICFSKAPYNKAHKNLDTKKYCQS
5-hydroxytryptamine receptor 2A, sequence (P35363 whole entry): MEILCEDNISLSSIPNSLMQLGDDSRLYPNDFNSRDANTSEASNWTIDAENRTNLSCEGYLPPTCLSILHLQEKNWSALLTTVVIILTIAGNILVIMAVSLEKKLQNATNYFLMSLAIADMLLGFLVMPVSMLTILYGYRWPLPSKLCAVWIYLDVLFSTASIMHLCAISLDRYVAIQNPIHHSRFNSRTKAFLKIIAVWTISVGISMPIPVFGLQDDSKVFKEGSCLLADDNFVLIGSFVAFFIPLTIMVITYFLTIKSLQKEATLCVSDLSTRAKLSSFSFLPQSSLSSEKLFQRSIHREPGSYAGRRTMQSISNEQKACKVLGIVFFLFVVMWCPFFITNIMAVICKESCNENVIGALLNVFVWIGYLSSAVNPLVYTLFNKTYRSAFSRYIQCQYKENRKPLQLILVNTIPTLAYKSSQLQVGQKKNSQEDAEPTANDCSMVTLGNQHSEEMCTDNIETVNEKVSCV
Mu-type opioid receptor, sequence (P35372 whole entry): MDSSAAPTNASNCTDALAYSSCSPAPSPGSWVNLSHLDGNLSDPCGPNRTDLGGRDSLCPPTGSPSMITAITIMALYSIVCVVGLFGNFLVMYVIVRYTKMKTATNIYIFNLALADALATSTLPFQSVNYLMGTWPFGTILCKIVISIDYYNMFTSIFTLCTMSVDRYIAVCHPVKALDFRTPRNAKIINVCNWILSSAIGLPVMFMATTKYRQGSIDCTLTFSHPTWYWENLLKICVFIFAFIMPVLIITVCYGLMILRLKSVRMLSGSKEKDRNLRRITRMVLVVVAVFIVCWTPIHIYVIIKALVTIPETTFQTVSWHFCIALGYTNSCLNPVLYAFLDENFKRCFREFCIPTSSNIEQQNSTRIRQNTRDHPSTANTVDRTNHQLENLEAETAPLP

Structure (SMILES): CCOC(=O)c1ccc(NC(=S)N2CCSC2c2ccc(Br)cc2)cc1 (configuration not stated)
- IC50 (cells): 11 µM (active)
- CC50 [1]: 14 µM (active)
- EC50 [2]: 4.38 µM (active)

Structure (SMILES): c1ccc(-c2ccc(C(c3ccccc3)n3ccnc3)cc2)cc1 (configuration not stated) [BIFONAZOLE]
- IC50 [3]: 14.7 µM (not active)
- EC50 [4]: 17.8 µM (active)
- EC50 [5]: > 20 µM (not active)
- AC50 [6]: 1.06 µM (active)
- IC50 (Phospholipase A2): 8.89 µM (active)
- IC50 (Cysteine protease ATG4B): 8.5 µM (active)
- CC50 [7]: > 40 µM (active)

Structure (SMILES): O=[N+]([O-])c1ccc(/C=N/Nc2nc(-c3ccccc3)c3cc(Br)ccc3n2)o1
- CC50 [1]: > 50 µM (active)
- EC50 [8]: 26.1 µM (active)
- IC50 [9]: 6.57 µM (active)
- EC50 [10]: 0.703 µM (active)
- IC50 [11]: 80 µM (inactive)
- EC50 (Streptococcus): 0.934 µM (active)
- EC50 [12]: 29.7 µM (active)

Structure (SMILES): COc1ccc(C(=O)Nn2c(SCC(=O)NCc3ccco3)nc3ccccc3c2=O)cc1
- EC50 [13]: 8.3 µM (active)
- EC50 [14]: 8.65 µM (inconclusive)
- EC50 (HT-1080): > 50 µM (not active)
- IC50 [15]: > 20 µM (inactive)
- EC50 [16]: 8.39 µM (active)
- EC50 [17]: 0.44 µM (active)
- AC50 (HEK293): 2.48 µM (active)

Structure (SMILES): CCN(CC)C(=O)N1c2ccccc2C=Cc2ccccc21
- IC50 (cells): 2.02 µM (active)
- CC50 [1]: 9.46 µM (active)
- IC50 (Vero [18]): 4.41 µM (active)
- EC50 (H4): > 120 µM (not active)
- EC50 [19]: 30 µM (active)
- CC50 (Vero [20]): > 25 µM (active)

Structure (SMILES): CN(Cc1cc2ccccc2nc1O)S(C)(=O)=O
- EC50 [4]: > 20 µM (not active)
- EC50 [5]: > 20 µM (not active)

Structure (SMILES): Oc1cc2c(cc1O)[C@@H](c1ccccc1)CNCC2
- EC50 [21]: 28.2 µM (inactive)
- EC50 (Mu-type opioid receptor): 92.7 µM (inactive)
- CC50 [22]: > 40 µM (active)

Structure (SMILES): COc1ccc(NS(=O)(=O)c2c(C)n(C)c(=O)n(C)c2=O)cc1OC
- IC50 [23]: > 47.1 µM (inactive)
- EC50 [24]: > 79.4 µM (not active)
- EC50 [25]: > 79.4 µM (not active)
- EC50 [2]: > 53 µM (inactive)
- EC50 [26]: > 79.4 µM (not active)

Structure (SMILES): CSC1=NC(C)(C)CC2(CC(c3ccccc3)Oc3cc(O)ccc32)N1 (configuration not stated)
- EC50 [24]: > 79.4 µM (not active)
- EC50 [25]: > 79.4 µM (not active)
- IC50 (Protein skinhead-1): > 100 µM (inactive)
- EC50 [26]: > 79.4 µM (not active)

Structure (SMILES): COc1ccc(Br)cc1C(=O)N/N=C/c1ccc([N+](=O)[O-])cc1
- EC50 [24]: > 79.4 µM (not active)
- EC50 [25]: > 79.4 µM (not active)
- EC50 [26]: > 79.4 µM (not active)

Structure (SMILES): Oc1cc(-c2ccccc2)nc2nc(-c3ccco3)nn12
- IC50 [9]: > 20 µM (inactive)
- IC50 [11]: 80 µM (inactive)

Structure (SMILES): O=[N+]([O-])c1cc(CN2CCOCC2)c2cccnc2c1O
- IC50 [27]: 50 µM (inactive)
- IC50 [28]: 2.93 µM (active)
- CC50 [22]: > 40 µM (active)
